Reference: PubChem BioAssay (NCI)
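Five concentrations, 48 hours, 96-well plates. TGI marks complete inhibition of growth.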

Columns and labels:
Test in all cases: NCI tumour cell line growth inhibition, 48 h
[1] = test system: MALME-3M melanoma
[2] = test system: NCI-H226 lung
[3] = test system: LOX IMVI melanoma
[4] = test system: SK-MEL-28 melanoma
[5] = test system: OVCAR-5 ovarian
[6] = test system: KM20L2 colon
[7] = test system: DLD-1 colon
[8] = test system: OVCAR-8 ovarian
[9] = test system: TK-10 renal
[10] = test system: 786-0 renal
[11] = test system: COLO 205 colon
[12] = test system: SF-539 CNS
[13] = test system: SK-MEL-2 melanoma
[14] = test system: ACHN renal
[15] = test system: DMS 273 small cell lung
[16] = test system: UACC-62 melanoma
[17] = test system: HOP-18 NSCLC
[18] = test system: EKVX NSCLC
[19] = test system: XF 498 CNS
[20] = test system: U251 CNS
[21] = test system: HT29 colon
[22] = test system: SNB-19 CNS
[23] = test system: OVCAR-4 ovarian
[24] = test system: SK-OV-3 ovarian
[25] = test system: OVCAR-3 ovarian
[26] = test system: MOLT-4 leukemia
[27] = test system: UACC-257 melanoma
[28] = test system: RPMI-8226 leukemia
[29] = test system: HCC-2998 colon
[30] = test system: SF-268 CNS
[31] = test system: RXF-631 renal
[32] = test system: K-562 leukemia
[33] = test system: HOP-62 NSCLC
[34] = test system: UO-31 renal
[35] = test system: SK-MEL-5 melanoma
[36] = test system: SW-620 colon
[37] = test system: HOP-92 NSCLC
[38] = test system: HCT-116 colon
[39] = test system: M14 melanoma
[40] = test system: NCI-H460 lung
[41] = test system: SNB-75 CNS
[42] = test system: DMS 114 small cell lung
[43] = test system: LXFL 529 NSCLC
[44] = test system: A498 renal
[45] = test system: CCRF-CEM leukemia
[46] = test system: NCI-H23 lung
[47] = test system: SNB-78 CNS
[48] = test system: RXF 393 renal
[49] = test system: SN12C renal
[50] = test system: HCT-15 colon
[51] = test system: IGROV1 ovarian
[52] = test system: KM12 colon
[53] = test system: A549 NSCLC
[54] = test system: M19-MEL melanoma
[55] = test system: NCI-H522 lung
[56] = test system: SF-295 CNS
[57] = test system: SR leukemia
[58] = test system: HL-60(TB) leukemia
[59] = test system: CAKI-1 renal
[60] = test system: P388/ADR leukemia
[61] = test system: P388 leukemia
[62] = test system: NCI/ADR-RES ovarian
[63] = test system: MCF7 breast
[64] = test system: SN12K1 renal

CC(C)=CC1CCc2ccccc2N1S(=O)(=O)c1ccc(C)cc1 (stereo not given)
TGI [1]: 51.5 µM
TGI [2]: 6.05 µM
TGI [3]: 12.6 µM
TGI [4]: > 40.1 µM
TGI [5]: > 31.6 µM
TGI [6]: 3.12 µM
TGI [7]: > 100 µM
TGI [8]: > 31.3 µM
TGI [9]: > 31.6 µM
TGI [10]: 12.1 µM
TGI [11]: 5.4 µM
TGI [12]: 3.14 µM
TGI [13]: 7.12 µM
TGI [14]: > 31.6 µM
TGI [15]: 1.59 µM
TGI [16]: 16.1 µM
TGI [17]: > 100 µM
TGI [18]: > 100 µM
TGI [19]: 26.8 µM
TGI [20]: 4.58 µM
TGI [21]: 3.24 µM
TGI [22]: > 100 µM
TGI [23]: > 31.6 µM
TGI [24]: > 100 µM
TGI [25]: 4.25 µM
TGI [26]: 10.3 µM
TGI [27]: 23.6 µM
TGI [28]: 5.07 µM
TGI [29]: 7.95 µM
TGI [30]: 85.8 µM
TGI [31]: > 100 µM
TGI [32]: > 100 µM
TGI [33]: 14 µM
TGI [34]: > 100 µM
TGI [35]: 5.12 µM
TGI [36]: > 100 µM
TGI [37]: 7.61 µM
TGI [38]: 6.69 µM
TGI [39]: 7.38 µM
TGI [40]: 8.02 µM
TGI [41]: > 25.1 µM
TGI [42]: 4.12 µM
TGI [43]: > 47.2 µM
TGI [44]: 6.98 µM
TGI [45]: > 100 µM
TGI [46]: 5.7 µM
TGI [47]: > 100 µM
TGI [48]: 5.14 µM
TGI [49]: > 100 µM
TGI [50]: > 31.6 µM
TGI [51]: > 100 µM
TGI [52]: 6.16 µM
TGI [53]: 18.9 µM
TGI [54]: 13.7 µM
TGI [55]: 5.77 µM
TGI [56]: > 21.4 µM

CCCCCCC[C@@H](O)CC(=O)NC(CC(C)C)C(=O)NC(CCC(=O)O)C(=O)NC1C(=O)NC(C(C)C)C(=O)NC(CC(C)C)C(=O)NC(CO)C(=O)NC(CC(C)C)C(=O)NC(CO)C(=O)NC(C(C)CC)C(=O)OC1C (stereo not given in full)
TGI [1]: 17.6 µM
TGI [2]: 34.2 µM
TGI [3]: 31.2 µM
TGI [4]: 30.6 µM
TGI [5]: 31.8 µM
TGI [6]: 30.5 µM
TGI [7]: 3.04 µM
TGI [8]: 29.8 µM
TGI [9]: 28.9 µM
TGI [10]: 27.9 µM
TGI [11]: 2.93 µM
TGI [12]: 4.77 µM
TGI [14]: 25.7 µM
TGI [15]: 28.1 µM
TGI [16]: 29.1 µM
TGI [17]: 24.9 µM
TGI [19]: 15.2 µM
TGI [20]: 20.9 µM
TGI [21]: 31 µM
TGI [22]: 16.6 µM
TGI [23]: 34.4 µM
TGI [24]: 34.4 µM
TGI [57]: 35.3 µM
TGI [25]: 31.1 µM
TGI [26]: 39.9 µM
TGI [27]: 29 µM
TGI [28]: 33.5 µM
TGI [29]: 28.6 µM
TGI [30]: 30.5 µM
TGI [31]: 28.8 µM
TGI [32]: 30.9 µM
TGI [33]: 24.4 µM
TGI [58]: 37.2 µM
TGI [34]: 33.6 µM
TGI [35]: 29.9 µM
TGI [36]: 28.8 µM
TGI [37]: 18.7 µM
TGI [38]: 25.7 µM
TGI [39]: 20.9 µM
TGI [40]: 11.3 µM
TGI [41]: 18 µM
TGI [42]: 33.1 µM
TGI [43]: 25.8 µM
TGI [59]: 37.6 µM
TGI [44]: 31.6 µM
TGI [45]: 25.8 µM
TGI [46]: 29.9 µM
TGI [47]: 34.3 µM
TGI [48]: 26 µM
TGI [49]: 29.5 µM
TGI [50]: 4.42 µM
TGI [51]: 31.6 µM
TGI [52]: 26.6 µM
TGI [53]: 36.1 µM
TGI [54]: 22.6 µM
TGI [55]: 26.6 µM
TGI [56]: 22.2 µM

CC(=O)Oc1ccc(O)c2c1CCCC2
TGI [1]: > 61.2 µM
TGI [2]: > 100 µM
TGI [3]: 36.3 µM
TGI [4]: > 100 µM
TGI [5]: > 100 µM
TGI [6]: > 100 µM
TGI [7]: 48.5 µM
TGI [8]: 32.9 µM
TGI [9]: 49.6 µM
TGI [10]: > 100 µM
TGI [11]: 55.6 µM
TGI [12]: > 100 µM
TGI [13]: > 100 µM
TGI [14]: 29.2 µM
TGI [15]: > 64.1 µM
TGI [16]: > 100 µM
TGI [17]: > 100 µM
TGI [18]: > 100 µM
TGI [19]: 30 µM
TGI [20]: > 100 µM
TGI [21]: > 100 µM
TGI [22]: > 100 µM
TGI [23]: 33.2 µM
TGI [24]: > 100 µM
TGI [57]: 16.3 µM
TGI [25]: 25.9 µM
TGI [26]: 43.5 µM
TGI [27]: > 91.1 µM
TGI [28]: 66.4 µM
TGI [29]: > 100 µM
TGI [30]: > 100 µM
TGI [31]: > 100 µM
TGI [32]: 54.6 µM
TGI [33]: > 100 µM
TGI [58]: 14.1 µM
TGI [34]: > 64.5 µM
TGI [35]: > 63.3 µM
TGI [36]: 39.6 µM
TGI [38]: 32.9 µM
TGI [39]: > 68.2 µM
TGI [40]: > 31.6 µM
TGI [41]: > 100 µM
TGI [42]: > 54 µM
TGI [43]: 31.2 µM
TGI [59]: > 73.4 µM
TGI [44]: > 31.6 µM
TGI [45]: 47.6 µM
TGI [46]: > 91.1 µM
TGI [47]: 40.2 µM
TGI [48]: > 57.5 µM
TGI [49]: > 65.9 µM
TGI [50]: 18.4 µM
TGI [51]: > 100 µM
TGI [52]: > 100 µM
TGI [53]: > 100 µM
TGI [54]: 18.4 µM
TGI [55]: 18.1 µM
TGI [56]: > 100 µM

CCCCCCCCC1=CCC(CN(C)C)C1=O (stereo not given)
TGI [1]: 32.3 µM
TGI [2]: > 76.3 µM
TGI [3]: 33.7 µM
TGI [4]: 38.2 µM
TGI [5]: > 72.4 µM
TGI [60]: 15 µM
TGI [6]: 47.4 µM
TGI [61]: 46.5 µM
TGI [7]: 35 µM
TGI [8]: 34.9 µM
TGI [62]: 41.7 µM
TGI [11]: 33.9 µM
TGI [12]: 36.9 µM
TGI [13]: 46.1 µM
TGI [15]: 35.3 µM
TGI [16]: 33.2 µM
TGI [18]: 48.1 µM
TGI [20]: 32.8 µM
TGI [21]: 35.4 µM
TGI [22]: > 79 µM
TGI [23]: 50.8 µM
TGI [24]: > 100 µM
TGI [63]: 13.6 µM
TGI [25]: 34.3 µM
TGI [26]: 48.2 µM
TGI [27]: 45.7 µM
TGI [28]: 4.2 µM
TGI [29]: 27.7 µM
TGI [30]: 34.7 µM
TGI [32]: 59 µM
TGI [64]: 32.1 µM
TGI [33]: > 31.6 µM
TGI [58]: 33.8 µM
TGI [34]: 39.2 µM
TGI [35]: 41.4 µM
TGI [36]: 36.6 µM
TGI [37]: 31 µM
TGI [38]: 36.5 µM
TGI [40]: 26.1 µM
TGI [41]: 32.1 µM
TGI [42]: 34.4 µM
TGI [44]: > 58.4 µM
TGI [45]: > 60.1 µM
TGI [46]: 39.2 µM
TGI [47]: 46.4 µM
TGI [48]: 36 µM
TGI [49]: 32.4 µM
TGI [50]: 33.7 µM
TGI [51]: 35.9 µM
TGI [52]: 38 µM
TGI [53]: > 100 µM
TGI [54]: 32.3 µM
TGI [55]: 31.3 µM
TGI [56]: > 60.7 µM
